Experimental data as given in article PMC10054240, “New Inhibitors of Respiratory Syncytial Virus (RSV) Replication Based on Monoterpene-Substituted Arylcoumarins” (Molecules, 2023).
Where two headings read alike, the source gives them in different places.

Assays:
RSV A strain A2 = experiment: Antiviral activity against RSV A strain A2 in HEp-2 cells (ELISA virus titer); assay type: cell-based, respiratory syncytial virus; settings: for pIC50 (-lg[IC50]) / IC50: from Table 1 values; for IC50: HEp-2, RSV A, read-out: pIC50 (-lg[IC50]) (converted)
[1] = Cytotoxicity on non-infected HEp-2 cells, MTT assay; assay type: cell-based; settings: human, non-infected HEp-2 cells, CC50 (50% cytotoxic concentration), MTT, 24 h
RSV A2 virus = experiment: Time-of-addition assay; assay type: cell-based, respiratory syncytial virus; settings: 300 μg/mL, RSV A2, titer by ELISA
Experimental: Compounds 14e and 14b at a concentration of 300 μg/mL were added at different time intervals before, after, or during virus inoculation (Figure 2 and Figure 3). The time of compound addition was counted off from Point 0, i.e., the moment of virus entry into the cell. RSV A2 virus was added to cells at a time conventionally designated as […]; then, cells were kept at a temperature of 40 °C for 1 h. Next, at Point 0, unbound virus was washed off, fresh medium containing compounds at the same concentration was added, and the cells were transferred to a thermostat at 37 °C where they were incubated for 25 h. After this, medium collected from each well was used to make a series of ten-fold dilutions with fresh cell culture. The cells were incubated for 6 days. The viral titer was measured by ELISA.
Compounds were added at different time points before, after, or simultaneously with the introduction of the virus. The time of addition of the compounds was counted from Point 0, i.e., the time of entry of the virus into the cell. During the period (−1)–0, the cells together with the virus were incubated at 40 °C. All other experiments were carried out at 37 °C. RSV virus A […] was added to the cells at a time that was conventionally designated as […], after which the cells were kept for an hour at a temperature of 40 °C. Then, at Point 0, the virus was unbound. […]

RSV type B = experiment: Inhibition of reproduction of RSV type B; assay type: cell-based; settings: human respiratory syncytial virus
Experimental: The antiviral activity against the respiratory syncytial virus was assessed in a series of 3-fold dilutions of test compounds, starting from ½CC50, which were added to HEp-2 cell culture, at a double concentration, 100 μL per well, followed by addition of 100 μL of the virus in a series of 10-fold dilutions. Cells were incubated at 37 °C and 5% CO2 for 1 h. Then, the virus was washed out, and the compounds were again added at a single concentration and incubated at 37 °C and 5% CO2 for 6 days. For the enzyme-linked immunosorbent assay (ELISA), cell culture was fixed with cold 80% acetone at −20 °C for 15 min, and then washed with phosphate buffered saline containing 0.05% Tween 20. Next, a solution of primary mouse anti-RSV F protein antibodies was added to the culture and incubated at room temperature under continuous stirring for 2 h. Then, cells were again washed with buffer, secondary anti-mouse antibodies were added, and the cells were incubated under continuous stirring for 2 h. […] After 5 min, the reaction was stopped with 0.1 M sulfuric acid, and optical density of the solution was measured at a wavelength of 450 nm. Wells with absorbance values two fold or greater than the cell control were considered to be […]. The virus titer was calculated using the Reed and Muench method. […]

HEp-2 cells = experiment: Cytotoxicity on non-infected HEp-2 cells, MTT assay; assay type: cell-based
[2] = human respiratory syncytial virus
[3] = human respiratory syncytial virus, HEp-2, read-out: EC50 (50% effective concentration)

SMILES | SI (selective index) (RSV A strain A2) | pIC50 (-lg[IC50]) (RSV A strain A2; RSV A) | EC50 (RSV A strain A2; read-out: EC50 (50% effective concentration)) [µM] | CC50 at 24 h [1] [µM] | effect on viral titer depending on time of addition (in words) (RSV A2 virus) | antiviral activity against RSV A (in words) (RSV A strain A2; RSV A, HEp-2 cells) | IC50 (RSV A strain A2; [2]) [µM] | EC50 (RSV A strain A2; [3]) [µM] | EC50 (RSV type B) [µM] | cytotoxicity (in words) (HEp-2 cells)
CC1(C)C2CC=C(COc3ccc4c(-c5ccccc5)cc(=O)oc4c3)C1C2 (stereo not shown) [Compound 14b] | 32.8 | 4.75 | 18 ± 0.9 | 591 ± 85.2 | reduced the viral titer at all time periods, except for prophylactic use 2 h before virus entry into cells |  |  |  |  | 
CC1(C)[C@H]2CC=C(CCCOc3ccc4c(-c5ccccc5)cc(=O)oc4c3)[C@@H]1C2 [Compound 14e, 7-(3-((1R,5S)-6,6-Dimethylbicyclo[3.1.1]hept-2-en-2-yl)propoxy)-4-phenyl-2H-chromen-2-one] |  |  |  | 1440 ± 85.1 | reduced the viral titer upon addition at all time periods through 6 h after infection | inhibiting virus replication at low micromolar concentrations | 7.59 | 7.5 ± 0.4 | 3 ± 0.2 | 
CC1(C)[C@H]2CC=C(CNc3ccc4c(-c5ccccc5)cc(=O)oc4c3)[C@@H]1C2 [Compound 21, 7-(((1R,5S)-6,6-Dimethylbicyclo[3.1.1]hept-2-en-2-yl)methylamino)-4-phenyl-2H-chromen-2-one] |  | 4.90 |  | 20.5 ± 1.4 |  |  | > 12.6 | > 13 |  | abrupt increase in cytotoxicity
